Source: patent US9150577B2, “Heterocyclic compounds containing an indole core” (Boehringer Ingelheim International GmbH, priority 2009, dated 2015)

Each compound was assayed against Human RSK2 (Homo sapiens (Human), UniProt P51812) (assay: Human RSK2 assay (Kinase Glo Plus, residual ATP);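 further: recombinant human RSK2 phosphorylating a substrate peptide, 90 min at 28 °C, leftover ATP read by luminescence, RLU scaled between no-kinase background and uninhibited kinase controls, 4-parameter fit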).
Human RSK2, sequence (P51812 whole entry): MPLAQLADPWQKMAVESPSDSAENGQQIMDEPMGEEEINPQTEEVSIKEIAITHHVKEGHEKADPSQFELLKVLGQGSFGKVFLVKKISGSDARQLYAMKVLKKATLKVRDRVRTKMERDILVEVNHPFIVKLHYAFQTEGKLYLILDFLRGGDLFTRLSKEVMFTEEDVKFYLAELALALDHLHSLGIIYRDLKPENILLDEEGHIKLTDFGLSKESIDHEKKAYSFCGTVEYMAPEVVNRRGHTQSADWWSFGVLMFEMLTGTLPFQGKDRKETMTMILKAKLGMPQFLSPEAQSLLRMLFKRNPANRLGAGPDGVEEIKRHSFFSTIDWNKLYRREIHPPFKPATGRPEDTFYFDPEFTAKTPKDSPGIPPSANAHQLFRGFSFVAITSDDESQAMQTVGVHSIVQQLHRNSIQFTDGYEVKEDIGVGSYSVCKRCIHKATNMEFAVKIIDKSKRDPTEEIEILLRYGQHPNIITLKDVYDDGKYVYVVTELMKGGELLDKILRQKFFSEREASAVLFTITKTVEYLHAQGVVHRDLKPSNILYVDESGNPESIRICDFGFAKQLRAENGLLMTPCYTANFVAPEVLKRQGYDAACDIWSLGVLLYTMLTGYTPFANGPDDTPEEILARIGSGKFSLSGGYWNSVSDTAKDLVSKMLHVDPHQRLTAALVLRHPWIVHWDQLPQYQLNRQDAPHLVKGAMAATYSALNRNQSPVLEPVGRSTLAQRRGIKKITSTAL
Type: biochemical

Row | SMILES | IC50 [nM]
1 | Cc1cnc(NC(=O)c2ccc3cc4n(c3c2)CCCNC4=O)s1 [Example 106, N-(5-methyl-1,3-thiazol-2-yl)-1-oxo-2,3,4,5-tetrahydro-1H-[1,4]diazepino[1,2-a]indole-8-carboxamide] | 300
2 | Cn1c(-c2ccccc2)cnc1NC(=O)c1ccc2cc3n(c2c1)CCCNC3=O [Example 107, N-(1-methyl-5-phenyl-1H-imidazol-2-yl)-1-oxo-2,3,4,5-tetrahydro-1H-[1,4]diazepino[1,2-a]indole-8-carboxamide] | 500
3 | O=C(Nc1ncc[nH]1)c1ccc2cc3n(c2c1)CCCNC3=O [Example 108, N-(1H-imidazol-2-yl)-1-oxo-2,3,4,5-tetrahydro-1H-[1,4]diazepino[1,2-a]indole-8-carboxamide] | 25.5
4 | Cn1ccnc1NC(=O)c1ccc2cc3n(c2c1)CCCNC3=O [Example 109, N-(1-methyl-1H-imidazol-2-yl)-1-oxo-2,3,4,5-tetrahydro-1H-[1,4]diazepino[1,2-a]indole-8-carboxamide] | 2200
5 | CC(C)(C)c1nnc(NC(=O)c2ccc3cc4n(c3c2)CCCNC4=O)s1 [Example 110, N-(5-tert-butyl-1,3,4-thiadiazol-2-yl)-1-oxo-2,3,4,5-tetrahydro-1H-[1,4]diazepino[1,2-a]indole-8-carboxamide] | 96
6 | CC(C)(C)c1cnc(NC(=O)c2ccc3cc4n(c3c2)CCCNC4=O)o1 [Example 111, N-(5-tert-butyl-1,3-oxazol-2-yl)-1-oxo-2,3,4,5-tetrahydro-1H-[1,4]diazepino[1,2-a]indole-8-carboxamide] | 1800
7 | O=C(Nc1nc2ccccc2o1)c1ccc2cc3n(c2c1)CCCNC3=O [Example 112, N-(1,3-benzoxazol-2-yl)-1-oxo-2,3,4,5-tetrahydro-1H-[1,4]diazepino[1,2-a]indole-8-carboxamide] | 370
8 | O=C(Nc1cnn(CCc2ccccc2)c1)c1ccc2cc3n(c2c1)CCCNC3=O [Example 113, 1-oxo-N-[1-(2-phenylethyl)-1H-pyrazol-4-yl]-2,3,4,5-tetrahydro-1H-[1,4]diazepino[1,2-a]indole-8-carboxamide] | 17
9 | O=C(Nc1cnn(Cc2ccccc2)c1)c1ccc2cc3n(c2c1)CC(F)(F)CNC3=O [Example 115, N-(1-benzyl-1H-pyrazol-4-yl)-4,4-difluoro-1-oxo-2,3,4,5-tetrahydro-1H-[1,4]diazepino[1,2-a]indole-8-carboxamide] | 32
10 | Cn1cc(NC(=O)c2ccc3cc4n(c3c2)CCCNC4=O)ccc1=O [Example 116, N-(1-methyl-6-oxo-1,6-dihydropyridin-3-yl)-1-oxo-2,3,4,5-tetrahydro-1H-[1,4]diazepino[1,2-a]indole-8-carboxamide] | 110
11 | O=C(Nc1nnc(Cc2ccccc2)s1)c1ccc2cc3n(c2c1)CCCNC3=O [Example 117, N-(5-benzyl-1,3,4-thiadiazol-2-yl)-1-oxo-2,3,4,5-tetrahydro-1H-[1,4]diazepino[1,2-a]indole-8-carboxamide] | 98
12 | CS(=O)(=O)c1ccc2c(c1)nc(NC(=O)c1ccc3cc4n(c3c1)CCCNC4=O)n2CC(F)(F)F [Example 118, N-[5-(methylsulfonyl)-1-(2,2,2-trifluoroethyl)-1H-benzimidazol-2-yl]-1-oxo-2,3,4,5-tetrahydro-1H-[1,4]diazepino[1,2-a]indole-8-carboxamide] | 18
13 | CN(C)CCn1cc(NC(=O)c2ccc3cc4n(c3c2)CCCNC4=O)cn1 [Example 119, N-{1-[2-(dimethylamino)ethyl]-1H-pyrazol-4-yl}-1-oxo-2,3,4,5-tetrahydro-1H-[1,4]diazepino[1,2-a]indole-8-carboxamide] | 120
14 | CN(C)c1cccc(Cn2cc(NC(=O)c3ccc4cc5n(c4c3)CCCNC5=O)cn2)c1 [Example 120, N-{1-[3-(dimethylamino)benzyl]-1H-pyrazol-4-yl}-1-oxo-2,3,4,5-tetrahydro-1H-[1,4]diazepino[1,2-a]indole-8-carboxamide] | 3.8
15 | CC1(C)CNC(=O)c2cc3ccc(C(=O)Nc4cnn(Cc5ccccc5)c4)cc3n2C1 [Example 122, N-(1-benzyl-1H-pyrazol-4-yl)-4,4-dimethyl-1-oxo-2,3,4,5-tetrahydro-1H-[1,4]diazepino[1,2-a]indole-8-carboxamide] | 110
16 | O=C(Nc1cccnc1)c1ccc2cc3n(c2c1)CC1(CC1)CNC3=O [Example 123, 1′-oxo-N-(pyridin-3-yl)-2′,3′-dihydro-1′H-spiro[cyclopropane-1,4′-[1,4]diazepino[1,2-a]indole]-8′-carboxamide] | 430
17 | O=C(Nc1cnn(Cc2ccccc2)c1)c1ccc2cc3n(c2c1)CC1(CC1)CNC3=O [Example 125, N-(1-benzyl-1H-pyrazol-4-yl)-1′-oxo-2′,3′-dihydro-1′H-spiro[cyclopropane-1,4′-[1,4]diazepino[1,2-a]indole]-8′-carboxamide] | 11
18 | Cc1cc(NC(=O)c2ccc3cc4n(c3c2)C(C)(C)CNC4=O)no1 [Example 126, 4,4-dimethyl-N-(5-methyl-1,2-oxazol-3-yl)-1-oxo-1,2,3,4-tetrahydropyrazino[1,2-a]indole-7-carboxamide] | 36
19 | Cc1cc(NC(=O)c2ccc3cc4n(c3c2)CC2(CC2)CNC4=O)no1 [Example 127, N-(5-methyl-1,2-oxazol-3-yl)-1′-oxo-2′,3′-dihydro-1′H-spiro[cyclopropane-1,4′-[1,4]diazepino[1,2-a]indole]-8′-carboxamide] | 145
20 | Cc1cc(NC(=O)c2ccc3cc4n(c3c2)[C@H](C)CNC4=O)no1 [Example 128, (4R)-4-methyl-N-(5-methyl-1,2-oxazol-3-yl)-1-oxo-1,2,3,4-tetrahydropyrazino[1,2-a]indole-7-carboxamide] | 6.6
21 | C[C@@H]1CNC(=O)c2cc3ccc(C(=O)Nc4cnn(Cc5ccccc5)c4)cc3n21 [Example 130, (4R)-N-(1-benzyl-1H-pyrazol-4-yl)-4-methyl-1-oxo-1,2,3,4-tetrahydropyrazino[1,2-a]indole-7-carboxamide] | 0.6

Second part, the compound after the results:

Row | IC50 [nM] | SMILES
22 | 4.8 | O=C(Nc1nc2ccccc2n1CC(F)(F)F)c1ccc2cc3n(c2c1)CCCNC3=O [Example 87, 1-oxo-N-[1-(2,2,2-trifluoroethyl)-1H-benzimidazol-2-yl]-2,3,4,5-tetrahydro-1H-[1,4]diazepino[1,2-a]indole-8-carboxamide]
23 | 21 | CN1CCC(Cn2c(NC(=O)c3ccc4cc5n(c4c3)CCCNC5=O)nc3ccccc32)CC1 [Example 88, N-{1-[(1-methylpiperidin-4-yl)methyl]-1H-benzimidazol-2-yl}-1-oxo-2,3,4,5-tetrahydro-1H-[1,4]diazepino[1,2-a]indole-8-carboxamide]
24 | 22 | O=C(Nc1nc2ccccc2n1CCc1ccccn1)c1ccc2cc3n(c2c1)CCCNC3=O [Example 89, 1-oxo-N-{1-[2-(pyridin-2-yl)ethyl]-1H-benzimidazol-2-yl}-2,3,4,5-tetrahydro-1H-[1,4]diazepino[1,2-a]indole-8-carboxamide]
25 | 16 | CN(C)CCCn1c(NC(=O)c2ccc3cc4n(c3c2)CC2(CCOCC2)CNC4=O)nc2ccccc21 [Example 95, N-{1-[3-(dimethylamino)propyl]-1H-benzimidazol-2-yl}-1-oxo-2,2′,3,3′,5′,6′-hexahydro-1H-spiro[1,4-diazepino[1,2-a]indole-4,4′-pyran]-8-carboxamide]
26 | 11 | CN(C)CCCn1c(NC(=O)c2ccc3cc4n(c3c2)CC2(CCC2)CNC4=O)nc2ccccc21 [Example 97, N-{1-[3-(dimethylamino)propyl]-1H-benzimidazol-2-yl}-1′-oxo-2′,3′-dihydro-1′H-spiro[cyclobutane-1,4′-[1,4]diazepino[1,2-a]indole]-8′-carboxamide]
27 | 0.38 | CN(C)CCCn1c(NC(=O)c2ccc3cc4n(c3c2)C(C)(C)CNC4=O)nc2ccccc21 [Example 98, N-{1-[3-(dimethylamino)propyl]-1H-benzimidazol-2-yl}-4,4-dimethyl-1-oxo-1,2,3,4-tetrahydropyrazino[1,2-a]indole-7-carboxamide]
28 | 1.3 | CC1CNC(=O)c2cc3ccc(C(=O)Nc4nc5ccccc5n4CCCN(C)C)cc3n21 (stereo not shown) [Example 100, N-{1-[3-(dimethylamino)propyl]-1H-benzimidazol-2-yl}-4-methyl-1-oxo-1,2,3,4-tetrahydropyrazino[1,2-a]indole-7-carboxamide]
29 | 13 | CC1CNC(=O)c2cc3ccc(C(=O)Nc4nc5ccccc5n4CCCN(C)C)cc3n2C1 (stereo not shown) [Example 101, N-{1-[3-(dimethylamino)propyl]-1H-benzimidazol-2-yl}-4-methyl-1-oxo-2,3,4,5-tetrahydro-1H-[1,4]diazepino[1,2-a]indole-8-carboxamide]
30 | 23 | CN(C)CCn1c(NC(=O)c2ccc3cc4n(c3c2)CCCNC4=O)nc2ccccc21 [Example 103, N-{1-[2-(dimethylamino)ethyl]-1H-benzimidazol-2-yl}-1-oxo-2,3,4,5-tetrahydro-1H-[1,4]diazepino[1,2-a]indole-8-carboxamide]
31 | 54 | O=C(Nc1nc2ccccc2n1CCN1CCOCC1)c1ccc2cc3n(c2c1)CCCNC3=O [Example 104, N-{1-[2-(morpholin-4-yl)ethyl]-1H-benzimidazol-2-yl}-1-oxo-2,3,4,5-tetrahydro-1H-[1,4]diazepino[1,2-a]indole-8-carboxamide]
32 | 23 | CN(C)CCCn1c(NC(=O)c2ccc3cc4n(c3c2)CC(F)(F)CNC4=O)nc2ccccc21 [Example 121, N-{1-[3-(dimethylamino)propyl]-1H-benzimidazol-2-yl}-4,4-difluoro-1-oxo-2,3,4,5-tetrahydro-1H-[1,4]diazepino[1,2-a]indole-8-carboxamide]
33 | 9.25 | CN(C)CCCn1c(NC(=O)c2ccc3cc4n(c3c2)CC2(CC2)CNC4=O)nc2ccccc21 [Example 124, N-{1-[3-(dimethylamino)propyl]-1H-benzimidazol-2-yl}-1′-oxo-2′,3′-dihydro-1′H-spiro[cyclopropane-1,4′-[1,4]diazepino[1,2-a]indole]-8′-carboxamide]
34 | 0.7 | C[C@@H]1CNC(=O)c2cc3ccc(C(=O)Nc4nc5ccccc5n4CCCN(C)C)cc3n21 [Example 129, (4R)-N-{1-[3-(dimethylamino)propyl]-1H-benzimidazol-2-yl}-4-methyl-1-oxo-1,2,3,4-tetrahydropyrazino[1,2-a]indole-7-carboxamide]
